Experimental data as given in PubChem BioAssay (NCI).
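The concentration for 50% growth inhibition is given as GI50. TGI marks complete inhibition of growth.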

How the values were obtained:
Assay in all cases: NCI-60 cell line screen, 384-well format
786-0 renal = system: 786-0 renal
A498 renal = system: A498 renal
A549 NSCLC = system: A549 NSCLC
ACHN renal = system: ACHN renal
BT-549 breast = system: BT-549 breast
CAKI-1 renal = system: CAKI-1 renal
CCRF-CEM leukemia = system: CCRF-CEM leukemia
COLO 205 colon = system: COLO 205 colon
DU-145 prostate = system: DU-145 prostate
EKVX NSCLC = system: EKVX NSCLC
HCC-2998 colon = system: HCC-2998 colon
HCT-15 colon = system: HCT-15 colon
HL-60(TB) leukemia = system: HL-60(TB) leukemia
HOP-62 NSCLC = system: HOP-62 NSCLC
HOP-92 NSCLC = system: HOP-92 NSCLC
HS 578T breast = system: HS 578T breast
HT29 colon = system: HT29 colon
IGROV1 ovarian = system: IGROV1 ovarian
K-562 leukemia = system: K-562 leukemia
KM12 colon = system: KM12 colon
LOX IMVI melanoma = system: LOX IMVI melanoma
M14 melanoma = system: M14 melanoma
MALME-3M melanoma = system: MALME-3M melanoma
MCF7 breast = system: MCF7 breast
MDA-MB-231 breast = system: MDA-MB-231 breast
MDA-MB-435 melanoma = system: MDA-MB-435 melanoma
MDA-MB-468 breast = system: MDA-MB-468 breast
MOLT-4 leukemia = system: MOLT-4 leukemia
NCI-H226 lung = system: NCI-H226 lung
NCI-H23 lung = system: NCI-H23 lung
NCI-H322M lung = system: NCI-H322M lung
NCI-H460 NSCLC = system: NCI-H460 NSCLC
NCI-H522 lung = system: NCI-H522 lung
NCI/ADR-RES ovarian = system: NCI/ADR-RES ovarian
OVCAR-3 ovarian = system: OVCAR-3 ovarian
OVCAR-4 ovarian = system: OVCAR-4 ovarian
OVCAR-5 ovarian = system: OVCAR-5 ovarian
OVCAR-8 ovarian = system: OVCAR-8 ovarian
PC-3 prostate = system: PC-3 prostate
RPMI-8226 leukemia = system: RPMI-8226 leukemia
RXF 393 renal = system: RXF 393 renal
SF-268 CNS = system: SF-268 CNS
SF-295 CNS = system: SF-295 CNS
SF-539 CNS = system: SF-539 CNS
SK-MEL-28 melanoma = system: SK-MEL-28 melanoma
SK-MEL-5 melanoma = system: SK-MEL-5 melanoma
SK-OV-3 ovarian = system: SK-OV-3 ovarian
SN12C renal = system: SN12C renal
SNB-19 CNS = system: SNB-19 CNS
SNB-75 CNS = system: SNB-75 CNS
SR leukemia = system: SR leukemia
SW-620 colon = system: SW-620 colon
T-47D breast = system: T-47D breast
TK-10 renal = system: TK-10 renal
U251 glioblastoma = system: U251 glioblastoma
UACC-257 melanoma = system: UACC-257 melanoma
UACC-62 melanoma = system: UACC-62 melanoma
UO-31 renal = system: UO-31 renal

Structure (SMILES): O=C(Nc1ccc(OC(F)(F)F)cc1)c1sccc1NCc1ccnc2ccccc12
- GI50 ([…]-0 renal): 4.38 µM
- TGI (786-0 renal): 15.6 µM
- GI50 (A498 renal): 2.57 µM
- TGI (A498 renal): 12.8 µM
- GI50 (A549 NSCLC): 4.5 µM
- TGI (A549 NSCLC): 52.5 µM
- GI50 (ACHN renal): 3.39 µM
- TGI (ACHN renal): 20.7 µM
- GI50 (BT-549 breast): 5.78 µM
- TGI (BT-549 breast): 17.7 µM
- GI50 (CAKI-1 renal): 3.2 µM
- TGI (CAKI-1 renal): 14.8 µM
- GI50 (CCRF-CEM leukemia): 2.03 µM
- TGI (CCRF-CEM leukemia): 4.44 µM
- GI50 (COLO 205 colon): 4.4 µM
- TGI (COLO 205 colon): 22.8 µM
- GI50 (DU-145 prostate): 4.94 µM
- TGI (DU-145 prostate): > 100 µM
- GI50 (EKVX NSCLC): 3.43 µM
- TGI (EKVX NSCLC): 19.9 µM
- GI50 (HCC-2998 colon): 4.65 µM
- TGI (HCC-2998 colon): 12 µM
- GI50 (HCT-15 colon): 3.55 µM
- TGI (HCT-15 colon): 10.9 µM
- GI50 (HL-60(TB) leukemia): 1.69 µM
- TGI (HL-60(TB) leukemia): 3.17 µM
- GI50 (HOP-62 NSCLC): 8.26 µM
- TGI (HOP-62 NSCLC): 71.6 µM
- GI50 (HOP-92 NSCLC): 3.99 µM
- TGI (HOP-92 NSCLC): 15.7 µM
- GI50 (HS 578T breast): 2.66 µM
- TGI (HS 578T breast): 8.81 µM
- GI50 (HT29 colon): 4.31 µM
- TGI (HT29 colon): 17.1 µM
- GI50 (IGROV1 ovarian): 2.47 µM
- TGI (IGROV1 ovarian): 6.72 µM
- GI50 (K-562 leukemia): 1.75 µM
- TGI (K-562 leukemia): 3.66 µM
- GI50 (KM12 colon): 3.74 µM
- TGI (KM12 colon): 15.9 µM
- GI50 (LOX IMVI melanoma): 3.48 µM
- TGI (LOX IMVI melanoma): 10.6 µM
- GI50 (M14 melanoma): 3.56 µM
- TGI (M14 melanoma): 14.3 µM
- GI50 (MALME-3M melanoma): 1.73 µM
- TGI (MALME-3M melanoma): 8.96 µM
- GI50 (MCF7 breast): 3.24 µM
- TGI (MCF7 breast): 15.9 µM
- GI50 (MDA-MB-231 breast): 1.9 µM
- TGI (MDA-MB-231 breast): 15.2 µM
- GI50 (MDA-MB-435 melanoma): 4.65 µM
- TGI (MDA-MB-435 melanoma): 21.7 µM
- GI50 (MDA-MB-468 breast): 2.06 µM
- TGI (MDA-MB-468 breast): 5.16 µM
- GI50 (MOLT-4 leukemia): 1.93 µM
- TGI (MOLT-4 leukemia): 3.56 µM
- GI50 (NCI-H226 lung): 4.4 µM
- TGI (NCI-H226 lung): 19 µM
- GI50 (NCI-H23 lung): 2.39 µM
- TGI (NCI-H23 lung): 8.57 µM
- GI50 (NCI-H322M lung): 4.43 µM
- TGI (NCI-H322M lung): 40.4 µM
- GI50 (NCI-H460 NSCLC): 2.93 µM
- TGI (NCI-H460 NSCLC): 10.6 µM
- GI50 (NCI-H522 lung): 2.96 µM
- TGI (NCI-H522 lung): 11.6 µM
- GI50 (NCI/ADR-RES ovarian): 2.8 µM
- TGI (NCI/ADR-RES ovarian): 8.9 µM
- GI50 (OVCAR-3 ovarian): 5.25 µM
- TGI (OVCAR-3 ovarian): 19.6 µM
- GI50 (OVCAR-4 ovarian): 4.43 µM
- TGI (OVCAR-4 ovarian): 19.6 µM
- GI50 (OVCAR-5 ovarian): 8.44 µM
- TGI (OVCAR-5 ovarian): 43.8 µM
- GI50 (OVCAR-8 ovarian): 3.99 µM
- TGI (OVCAR-8 ovarian): 16.2 µM
- GI50 (PC-3 prostate): 4.56 µM
- TGI (PC-3 prostate): 25.7 µM
- GI50 (RPMI-8226 leukemia): 2.06 µM
- TGI (RPMI-8226 leukemia): 4.59 µM
- GI50 (RXF 393 renal): 2.97 µM
- TGI (RXF 393 renal): 14.3 µM
- GI50 (SF-268 CNS): 6.24 µM
- TGI (SF-268 CNS): 32 µM
- GI50 (SF-295 CNS): 3.9 µM
- TGI (SF-295 CNS): 19 µM
- GI50 (SF-539 CNS): 5.11 µM
- TGI (SF-539 CNS): 19.8 µM
- GI50 (SK-MEL-28 melanoma): 5.71 µM
- TGI (SK-MEL-28 melanoma): 35.2 µM
- GI50 (SK-MEL-5 melanoma): 1.66 µM
- TGI (SK-MEL-5 melanoma): 3.41 µM
- GI50 (SK-OV-3 ovarian): 2.97 µM
- TGI (SK-OV-3 ovarian): 9.49 µM
- GI50 (SN12C renal): 3.82 µM
- TGI (SN12C renal): 24.8 µM
- GI50 (SNB-19 CNS): 11.9 µM
- TGI (SNB-19 CNS): > 100 µM
- GI50 (SNB-75 CNS): 5.09 µM
- TGI (SNB-75 CNS): 51.6 µM
- GI50 (SR leukemia): 1.81 µM
- TGI (SR leukemia): 4.06 µM
- GI50 (SW-620 colon): 6.31 µM
- TGI (SW-620 colon): 23 µM
- GI50 (T-47D breast): 2.03 µM
- TGI (T-47D breast): 6.57 µM
- GI50 (TK-10 renal): 11 µM
- TGI (TK-10 renal): 65 µM
- GI50 (U251 glioblastoma): 11.8 µM
- TGI (U251 glioblastoma): > 100 µM
- GI50 (UACC-257 melanoma): 3.51 µM
- TGI (UACC-257 melanoma): 13.6 µM
- GI50 (UACC-62 melanoma): 2.76 µM
- TGI (UACC-62 melanoma): 14.3 µM
- GI50 (UO-31 renal): 8.23 µM
- TGI (UO-31 renal): > 100 µM
